Experimental data reported in patent US10752587B2, “Homobispiperidinyl derivatives as liver X receptor beta agonists, compositions and their use” (Merck Sharp & Dohme Corp., priority 2015, dated 2020).
Where two headings read alike, the source gives them in different places.

How the values were obtained:
[1] = molecular target: T1, glutathione-S-transferase (GST) tagged LXRbeta LBD (ligand binding domain) (Homo sapiens, UniProt P55055); experiment: LanthaScreen TR-FRET Liver X Receptor Coactivator Assay, co-activator recruitment to LXRbeta LBD; format: biochemical; conditions: for Emax: read-out: LXR beta Activity @ max dose (%); for EC50: potency (Inflection Point, IP), co-activator recruitment to LXRbeta LBD, in relation to T0901317
T1 construct: purchased Invitrogen pv4658.pps
T1 sequence (P55055 222-460 limits assumed): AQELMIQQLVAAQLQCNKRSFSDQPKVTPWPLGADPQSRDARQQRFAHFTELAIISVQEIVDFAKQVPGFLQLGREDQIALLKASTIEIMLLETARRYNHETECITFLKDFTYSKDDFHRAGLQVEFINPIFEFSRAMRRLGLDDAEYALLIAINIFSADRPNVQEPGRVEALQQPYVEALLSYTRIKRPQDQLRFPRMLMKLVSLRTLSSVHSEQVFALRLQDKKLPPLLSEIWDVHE
Procedure, shortened: (§1)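 GST-tagged LBD added to test compound, then fluorescein-labelled coactivator peptide plus terbium anti-GST antibody; incubated at room temperature, TR-FRET read. Potency given as inflection point and efficacy as Emax relative to reference dual agonist T0901317.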

[2] = molecular target: T2, glutathione-S-transferase (GST) tagged LXRalpha LBD (ligand binding domain) (Homo sapiens, UniProt Q13133); experiment: LanthaScreen TR-FRET Liver X Receptor Coactivator Assay, co-activator recruitment to LXRalpha LBD; format: biochemical; conditions: for Emax: read-out: LXR alpha Activity @ max dose (%); for LXR alpha IP (nM) / EC50: potency (Inflection Point, IP), co-activator recruitment to LXRalpha LBD, in relation to T0901317
T2 construct: purchased Invitrogen pv4655
T2 sequence (Q13133 209-447 limits assumed): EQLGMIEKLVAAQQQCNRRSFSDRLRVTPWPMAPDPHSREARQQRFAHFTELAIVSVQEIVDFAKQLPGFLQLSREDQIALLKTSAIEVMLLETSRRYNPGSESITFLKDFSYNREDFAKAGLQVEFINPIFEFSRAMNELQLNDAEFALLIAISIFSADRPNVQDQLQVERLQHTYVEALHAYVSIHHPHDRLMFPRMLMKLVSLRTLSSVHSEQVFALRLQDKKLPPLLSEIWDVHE
Procedure, shortened: as §1

[3] = efficacy at max dose, in relation to reference dual agonist T0901317

Emax [1, 3] | EC50 ([1]; read-out: LXR beta IP) | Emax [2, 3] | LXR alpha IP (nM) [2] | EC50 ([2]; read-out: LXR alpha IP) | LXR beta Activity @ max dose (%) [1, 3] | LXR alpha Activity @ max dose (%) [2, 3] | SMILES | EC50 ([1]; LXR beta IP (nM)) | Emax [1] | EC50 ([2]; LXR alpha IP (nM)) | Emax [2]
59% | 91 nM | 0% | NO IP |  |  |  | CCOc1cccc([C@@](O)(C(=O)N2CC(CC3CCN(c4ccc(C(=O)NC)c(Cl)c4)CC3)C2)C(F)(F)F)c1 [Example 7-39, 2-chloro-4-[4-({1-[(2R)-2-(3-ethoxyphenyl)-3,3,3-trifluoro-2-hydroxypropanoyl]azetidin-3-yl}methyl)piperidin-1-yl]-N-methylbenzamide] |  |  |  | 
59% | 5 nM | 9% |  | 141 nM |  |  | Cc1cccc(C(O)(C(=O)N2CCC(CC3CCN(c4ccc(C(=O)N(C)C)c(Cl)n4)CC3)CC2)C(F)(F)F)c1 (centres unmarked) [Example 7-55, 2-chloro-N,N-dimethyl-6-[4-({1-[3,3,3-trifluoro-2-hydroxy-2-(3-methylphenyl)propanoyl]piperidin-4-yl}methyl)piperidin-1-yl] pyridine-3-carboxamide] |  |  |  | 
91% | 1430 nM | 0% | NO IP |  |  |  | COc1cccc([C@@](O)(C(=O)N2CCC(CC3CN(c4ccc(C(=O)N(C)C)c(C5CC5)n4)C3)CC2)C(F)(F)F)c1 [Example 7-15, 2-cyclopropyl-N,N-dimethyl-6-[3-({1-[(2R)-3,3,3-trifluoro-2-hydroxy-2-(3-methoxyphenyl)propanoyl]piperidin-4-yl}methyl)azetidin-1-yl]pyridine-3-carboxamide] |  |  |  | 
63% | 14 nM | 10% | NO IP |  |  |  | CN(C)C(=O)c1ccc(N2CCC(SC3CCN(C(=O)[C@](O)(c4cc(Cl)cc(Cl)c4)C(F)(F)F)CC3)CC2)nc1Cl [Example 9-3, 2-chloro-6-[4-({1-[(2R)-2-(3,5-dichlorophenyl)-3,3,3-trifluoro-2-hydroxypropanoyl]-piperidin-4-yl}-sulfanyl)piperidin-1-yl]-N,N-dimethyl-pyridine-3-carboxamide] |  |  |  | 
115% | 125 nM | 35% |  | 2260 nM |  |  | CNC(=O)c1ccc(N2CCC(OC3CCN(C(=O)[C@](O)(c4ccccc4)C(F)(F)F)CC3)CC2)cc1Cl [Example 7-26, 2-chloro-N-methyl-4-[4-({1-[(2R)-3,3,3-trifluoro-2-hydroxy-2-phenylpropanoyl]piperidin-4-yl}oxy)piperidin-1-yl]benzamide] |  |  |  | 
81% | 13 nM | 14% | NO IP |  |  |  | CNC(=O)c1ccc(N2CCC(CC3CCN(C(=O)[C@](O)(c4cccc(OC)c4)C(F)(F)F)CC3)CC2)nc1Cl [Example 7-135, 2-chloro-N-methyl-6-[4-({1-[(2R)-3,3,3-trifluoro-2-hydroxy-2-(3-methoxyphenyl)propanoyl]piperidin-4-yl}methyl)piperidin-1-yl]pyridine-3-carboxamide] |  |  |  | 
102% | 30 nM | 39% |  | 424 nM |  |  | CNC(=O)c1ccc(N2CCC(CC3CCN(C(=O)[C@](O)(c4cccc(OC)c4)C(F)(F)C(F)(F)F)CC3)CC2)nc1Cl [Example 7-138, 2-chloro-N-methyl-6-[4-({1-[(2R)-3,3,4,4,4-pentafluoro-2-hydroxy-2-(3-methoxyphenyl)butanoyl]piperidin-4-yl}methyl)piperidin-1-yl]pyridine-3-carboxamide] |  |  |  | 
86% | 9 nM | 22% |  | 429 nM |  |  | COc1cccc([C@@](O)(C(=O)N2CCC(CC3CCN(c4ccc(C(=O)N(C)C)c(Cl)n4)CC3)CC2)C(F)(F)C(F)(F)F)c1 [Example 7-79, 2-chloro-N,N-dimethyl-6-[4-({1-[(2R)-3,3,4,4,4-pentafluoro-2-hydroxy-2-(3-methoxyphenyl)butanoyl]piperidin-4-yl}methyl)piperidin-1-yl]pyridine-3-carboxamide] |  |  |  | 

The next lines start with the compound.

SMILES | Emax [1, 3] | EC50 ([1]; read-out: LXR beta IP) | Emax [2, 3] | LXR alpha IP (nM) [2] | EC50 ([2]; read-out: LXR alpha IP) | LXR beta Activity @ max dose (%) [1, 3] | LXR alpha Activity @ max dose (%) [2, 3] | EC50 ([1]; LXR beta IP (nM)) | Emax [1] | EC50 ([2]; LXR alpha IP (nM)) | Emax [2]
CN(C)C(=O)c1ccc(N2CCC(CC3CCN(C(=O)[C@](O)(c4ccccc4)C4CCCC4)CC3)CC2)nc1Cl [Example 7-98, 2-chloro-6-[4-({1-[(2R)-2-cyclopentyl-2-hydroxy-2-phenylacetyl]piperidin-4-yl}methyl)piperidin-1-yl]-N,N-dimethylpyridine-3-carboxamide] |  |  |  |  |  |  |  | 74 nM | 76% | 1090 nM | 19%
COc1cccc([C@@](O)(C(=O)N2CCC(CC3CCN(c4ccc(C(=O)N(C)C)c(Cl)c4)CC3)C2)C(F)(F)F)c1 (stereo partly drawn) [Example 2-72, 2-chloro-N,N-dimethyl-4-[4-({1-[(2R)-3,3,3-trifluoro-2-hydroxy-2-(3-methoxy-phenyl)propanoyl]pyrrolidin-3-yl}methyl)piperidin-1-yl]benzamide] | 39% | 74 nM | 0% | NO IP |  |  |  |  |  |  | 
CC[C@](O)(C(=O)N1CCC(CC2CCN(c3ccc(C(=O)N(C)C)c(Cl)c3)CC2)CC1)c1ccccc1 [Example 2-110, 2-chloro-4-[4-({1-[(2R)-2-hydroxy-2-phenylbutanoyl]piperidin-4-yl}methyl)piperidin-1-yl]-N,N-dimethyl-benzamide] | 50% | 54 nM | 17% | NO IP |  |  |  |  |  |  | 
COc1cccc([C@@](O)(C(=O)N2CCC(CC3CCN(c4cnc(C(=O)N(C)C)c(Cl)c4)CC3)CC2)C(F)(F)F)c1 [Example 2-3, 3-chloro-N,N-dimethyl-5-[4-({1-[(2R)-3,3,3-trifluoro-2-hydroxy-2-(3-methoxyphenyl)propanoyl]piperidin-4-yl}methyl)piperidin-1-yl]pyridine-2-carboxamide] | 50% | 26 nM | 6% | NO IP |  |  |  |  |  |  | 
CN(C)C(=O)c1ccc(N2[C@@H]3CC[C@H]2CN(CC2CCN(C(=O)[C@](O)(c4ccccc4)C(F)(F)F)CC2)C3)cc1Cl [Example 6-3, 2-chloro-N,N-dimethyl-4-[(1R,5S)-3-({1-[(2R)-3,3,3-trifluoro-2-hydroxy-2-phenylpropanoyl]piperidin-4-yl}methyl)-3,8-diazabicyclo[3.2.1]oct-8-yl]benzamide] | 37% | 2550 nM | 18% | NO IP |  |  |  |  |  |  | 
CS(=O)(=O)c1cccc(N2CCC(CC3CCN(C(=O)[C@](O)(c4ccccc4)C(F)(F)F)CC3)CC2)c1 [Example 2-74, (2R)-1,1,1-trifluoro-3-[4-({1-[3-(methylsulfonyl)phenyl]piperidin-4-yl}methyl)piperidin-1-yl]-3-oxo-2-phenylpropan-2-ol] | 87% | 39 nM | 38% |  | 444 nM |  |  |  |  |  | 
COc1cccc([C@@](O)(C(=O)N2CCC(CC3(C)CCN(c4ccc(C(=O)N(C)C)c(Cl)c4)CC3)CC2)C(F)(F)F)c1 [Example 3-1, (R)-2-chloro-N,N-dimethyl-4-(4-methyl-4-((1-(3,3,3-trifluoro-2-hydroxy-2-(3-methoxyphenyl)propanoyl)piperidin-4-yl)methyl)piperidin-1-yl)benzamide] |  |  | 5% | NO IP |  |  |  | 35 nM | 63% |  | 
CN(C)C(=O)c1ccc(N2CCC(CC3CCN(C(=O)[C@](O)(c4ccccc4)C(F)(F)C(F)(F)F)CC3)CC2)cc1Cl [Example 2-14, 2-chloro-N,N-dimethyl-4-[4-({1-[(2R)-3,3,4,4,4-pentafluoro-2-hydroxy-2-phenylbutanoyl]piperidin-4-yl}methyl)piperidin-1-yl]benzamide] |  |  |  | NO IP |  | 89% | 14% |  |  |  | 
CN(C)C(=O)c1ccc(N2CCC(CC3CCN(C(=O)C4(c5ccccc5)CCCC4)CC3)CC2)cc1Cl [Example 2-10, 2-chloro-N,N-dimethyl-4-[4-({1-[(1-phenyl-cyclopentyl)carbonyl]piperidin-4-yl}methyl)piperidin-1-yl] benzamide] | 60% | 50 nM | 0% | NO IP |  |  |  |  |  |  | 
CN(C)C(=O)c1ccc(N2CCC(CC3CCN(C(=O)[C@](O)(c4cccc(Cl)c4)C(F)(F)F)CC3)CC2)cc1 [Example 2-131, 4-[4-({1-[(2R)-2-(3-chloro-phenyl)-3,3,3-trifluoro-2-hydroxy-propanoyl]piperidin-4-yl}methyl)piperidin-1-yl]-N,N-dimethyl-benzamide] | 59% | 53 nM | 10% | NO IP |  |  |  |  |  |  | 
